From ChEMBL document CHEMBL2375291, “Discovery of a series of novel 5H-pyrrolo[2,3-b]pyrazine-2-phenyl ethers, as potent JAK3 kinase inhibitors” (Bioorg Med Chem Lett, 2013)
pIC50: −log10 of the molar value.

These compounds were tested against Tyrosine-protein kinase JAK1 (Homo sapiens, UniProt P23458).

pIC50	SMILES
6.08	CC(C)NC(=O)c1c[nH]c2ncc(Oc3ccccc3)nc12
5.67	Cc1cccc(Oc2cnc3[nH]cc(C(=O)NC(C)C)c3n2)c1
5.38	CCc1cccc(Oc2cnc3[nH]cc(C(=O)NC(C)C)c3n2)c1
5.09	COc1cc(OC)cc(Oc2cnc3[nH]cc(C(=O)NC(C)C)c3n2)c1
5.50	CC(C)NC(=O)c1c[nH]c2ncc(Oc3cccc(C#N)c3)nc12
5.46	CC(C)NC(=O)c1c[nH]c2ncc(Oc3ccc(C#N)cc3)nc12
5.29	Cc1ccccc1Oc1cnc2[nH]cc(C(=O)NC(C)C)c2n1
6.66	CC(NC(=O)c1c[nH]c2ncc(Oc3ccccc3)nc12)C1CC1 (stereo not drawn)
5.48	CC(C)NC(=O)c1c[nH]c2ncc(Oc3ccc4c(c3)CCC4)nc12
5.36	CC(=O)N[C@H]1CCc2ccc(Oc3cnc4[nH]cc(C(=O)NC(C)C)c4n3)cc21
5.20	CC(=O)N[C@@H]1CCc2ccc(Oc3cnc4[nH]cc(C(=O)NC(C)C)c4n3)cc21
6.06	CC(=O)N[C@@H]1CCc2ccc(Oc3cnc4[nH]cc(C(=O)N[C@@H](C)C5CC5)c4n3)cc21
5.68	CC(=O)N[C@@H]1CCc2ccc(Oc3cnc4[nH]cc(C(=O)N[C@H](C)C5CC5)c4n3)cc21
4.94	CC(=O)N[C@@H]1CCc2ccc(Oc3cnc4[nH]cc(C(=O)N[C@H](C)C(=O)N5CC(C#N)C5)c4n3)cc21
6.58	CC(=O)N[C@@H]1CCc2ccc(Oc3cnc4[nH]cc(C(=O)N[C@@H](C(=O)N5CC(C#N)C5)C5CC5)c4n3)cc21
6.06	CC(=O)N[C@@H]1CCc2ccc(Oc3cnc4[nH]cc(C(=O)N[C@@H](C(=O)N5CC(C#N)C5)C(C)(C)C)c4n3)cc21

Each compound was assayed against T1, Tyrosine-protein kinase JAK3 (Homo sapiens, UniProt P52333).
T1 sequence (P52333 whole entry): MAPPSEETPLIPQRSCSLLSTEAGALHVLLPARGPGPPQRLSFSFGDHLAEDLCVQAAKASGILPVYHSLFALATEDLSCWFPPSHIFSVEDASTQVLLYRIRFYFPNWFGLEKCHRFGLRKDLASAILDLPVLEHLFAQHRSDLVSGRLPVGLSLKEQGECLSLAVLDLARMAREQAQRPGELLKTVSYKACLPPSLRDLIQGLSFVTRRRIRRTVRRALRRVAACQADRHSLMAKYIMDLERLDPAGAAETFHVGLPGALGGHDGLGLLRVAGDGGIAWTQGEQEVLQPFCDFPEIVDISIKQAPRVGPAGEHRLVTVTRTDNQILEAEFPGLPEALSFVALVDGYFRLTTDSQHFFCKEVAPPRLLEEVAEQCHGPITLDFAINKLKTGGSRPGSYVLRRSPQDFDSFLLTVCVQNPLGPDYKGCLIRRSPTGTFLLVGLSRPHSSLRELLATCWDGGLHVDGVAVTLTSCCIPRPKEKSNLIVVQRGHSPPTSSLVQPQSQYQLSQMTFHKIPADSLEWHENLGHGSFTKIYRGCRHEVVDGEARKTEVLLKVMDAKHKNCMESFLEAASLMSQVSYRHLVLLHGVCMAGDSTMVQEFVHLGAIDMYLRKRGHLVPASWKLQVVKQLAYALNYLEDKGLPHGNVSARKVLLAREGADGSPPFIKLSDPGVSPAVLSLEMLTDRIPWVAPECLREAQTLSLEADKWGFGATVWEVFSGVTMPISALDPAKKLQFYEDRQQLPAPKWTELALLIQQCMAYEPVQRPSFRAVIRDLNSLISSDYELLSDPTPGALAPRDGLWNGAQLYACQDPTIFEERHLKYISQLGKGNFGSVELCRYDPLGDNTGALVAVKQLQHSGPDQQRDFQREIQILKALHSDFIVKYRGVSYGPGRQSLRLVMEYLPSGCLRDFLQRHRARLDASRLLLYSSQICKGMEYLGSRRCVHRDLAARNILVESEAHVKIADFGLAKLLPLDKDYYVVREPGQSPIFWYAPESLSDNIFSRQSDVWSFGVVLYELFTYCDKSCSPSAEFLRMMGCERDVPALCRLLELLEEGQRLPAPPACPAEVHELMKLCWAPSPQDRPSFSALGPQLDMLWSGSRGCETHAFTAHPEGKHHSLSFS

pIC50	SMILES
6.95	CC(=O)N[C@@H]1CCc2ccc(Oc3cnc4[nH]cc(C(=O)N[C@H](C)C(=O)N5CC(C#N)C5)c4n3)cc21
8.30	CC(=O)N[C@@H]1CCc2ccc(Oc3cnc4[nH]cc(C(=O)N[C@@H](C(=O)N5CC(C#N)C5)C5CC5)c4n3)cc21
